# Data: patent publication US20090131417A1, “SUBSTITUTED PYRIDYL AMIDE COMPOUNDS AS MODULATORS OF THE HISTAMINE H3 RECEPTOR” (priority 2007, published 2009)
# Assays:
# [1] = molecular target: T1, cloned human H3 receptors, stably expressed in SK-N-MC cells (Homo sapiens, UniProt Q9Y5N1); experiment: H3 Receptor Binding (Human); details: average of results obtained
# T1 construct: expressed in transfected cells; host or cells: SK-N-MC cells
# Protocol: Binding of compounds to the cloned human H3 receptors, stably expressed in SK-N-MC cells, was performed as described by Barbier, A. J. et al. (Br. J. Pharmacol. 2004, 143(5), 649-661). Data for compounds tested in this assay are presented in Table 1, as an average of results obtained.
# [2] = molecular target: T2, human H3 receptor (Homo sapiens, UniProt Q9Y5N1); experiment: Cyclic AMP Accumulation (human H3); format: cell-based; details: SK-N-MC cells expressing reporter construct and human H3 receptor, Example 1 tested as TFA salt; for Kb: read-out: Human pA2 (converted)
# T2 construct: expressed in transfected cells; host or cells: SK-N-MC cells
# T2 sequence (Q9Y5N1 whole entry): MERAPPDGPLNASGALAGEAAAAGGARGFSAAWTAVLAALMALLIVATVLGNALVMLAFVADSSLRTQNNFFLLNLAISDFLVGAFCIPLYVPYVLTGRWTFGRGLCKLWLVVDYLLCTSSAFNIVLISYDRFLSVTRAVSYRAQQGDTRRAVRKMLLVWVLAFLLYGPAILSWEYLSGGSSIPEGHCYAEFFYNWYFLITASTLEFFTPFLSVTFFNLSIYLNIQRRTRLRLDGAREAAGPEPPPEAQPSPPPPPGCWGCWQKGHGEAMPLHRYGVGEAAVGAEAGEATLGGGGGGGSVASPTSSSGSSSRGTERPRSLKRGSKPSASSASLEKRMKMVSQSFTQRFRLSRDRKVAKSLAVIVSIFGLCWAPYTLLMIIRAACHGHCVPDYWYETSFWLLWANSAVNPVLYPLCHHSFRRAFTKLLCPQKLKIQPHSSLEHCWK
# Protocol: (§1) Sublines of SK-N-MC cells were created that expressed a reporter construct and either the human or rat H3 receptor. The pA2 values were obtained as described by Barbier et al. (2004). Example 1 was tested as the corresponding TFA salt.
# [3] = molecular target: T3, rat H3 receptor (Rattus norvegicus, UniProt Q9QYN8); experiment: Cyclic AMP Accumulation (rat H3); format: cell-based; details: SK-N-MC cells expressing reporter construct and rat H3 receptor; Example 1 tested as TFA salt; read-out: Rat pA2 (converted)
# T3 construct: expressed in transfected cells; host or cells: SK-N-MC cells (subline with reporter construct)
# T3 sequence (Q9QYN8 whole entry): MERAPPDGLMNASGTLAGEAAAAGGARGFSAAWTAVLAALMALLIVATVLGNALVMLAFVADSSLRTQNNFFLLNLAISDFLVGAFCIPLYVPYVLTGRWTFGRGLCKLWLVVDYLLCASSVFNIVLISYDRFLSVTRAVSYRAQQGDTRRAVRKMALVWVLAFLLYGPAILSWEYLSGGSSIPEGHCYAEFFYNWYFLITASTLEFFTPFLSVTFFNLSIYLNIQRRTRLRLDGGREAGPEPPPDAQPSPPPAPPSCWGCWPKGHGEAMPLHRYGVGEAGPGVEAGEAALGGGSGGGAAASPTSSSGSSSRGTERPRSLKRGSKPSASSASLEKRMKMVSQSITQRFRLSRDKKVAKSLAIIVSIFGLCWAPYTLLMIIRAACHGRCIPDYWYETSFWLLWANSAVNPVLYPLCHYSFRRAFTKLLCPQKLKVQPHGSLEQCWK
# Protocol: as §1
# [4] = molecular target: T4, rat H3 receptor (rat brain membranes) (Rattus norvegicus, UniProt Q9QYN8); experiment: H3 Receptor Binding (Rat); details: rat brain without cerebellum membranes; 0.8 nM N-[3H]-alpha-methylhistamine; IC50 converted to Ki (Kd 0.8 nM); tested as the corresponding TFA salt
# T4 construct: A rat brain without cerebellum (Zivic Laboratories Inc., Pittsburgh, Pa.) was homogenized; tissue Zivic Laboratories Inc; host or cells: rat brain without cerebellum, membranes
# T4 sequence (Q9QYN8 whole entry): as above
# Protocol: A rat brain without cerebellum (Zivic Laboratories Inc., Pittsburgh, Pa.) was homogenized in 50 mM Tris-HCl/5 mM EDTA and centrifuged at 1,000 rpm for 5 min. The supernatant was removed and recentrifuged at 15,000 rpm for 30 min. Pellets were rehomogenized in 50 mM Tris/5 mM EDTA (pH 7.4). Membranes were incubated with 0.8 nM N—[^3H]-α-methylhistamine plus/minus test compounds for 60 min at 25° C. and harvested by rapid filtration over GF/C glass fiber filters (pretreated with 0.3% polyethylenimine) followed by four washes with buffer. Nonspecific binding was defined in the presence of 100 μM histamine. Inhibitory concentration (responsible for 50% inhibition of maximal effect, IC50) values were determined by a single site curve-fitting program (GraphPad, San Diego, Calif.) and converted to Ki values based on a N—[^3H]-α-methylhistamine dissociation constant (Kd) of 0.8 nM. The following results were obtained: Example 2, 28 nM; Example 6, 50 nM (tested as the corresponding TFA salt).
# T1 sequence (Q9Y5N1 whole entry): as the sequence (Q9Y5N1 whole entry) above
smiles,measurement,setting,value
"O=C(c1cncc(Oc2ccc(F)cc2)c1)N1CCCN(C2CCC2)CC1 [Example 1, (4-Cyclobutyl-[1,4]diazepan-1-yl)-[5-(4-fluoro-phenoxy)-pyridin-3-yl]-methanone]",Ki,[1],3.6 nM
same,Human pA2,[2],8.87
same,Kb,[3],28.8 nM
"O=C(c1cncc(Oc2cccc(Cl)c2)c1)N1CCCN(C2CCC2)CC1 [Example 2, [5-(3-Chloro-phenoxy)-pyridin-3-yl]-(4-cyclobutyl-[1,4]diazepan-1-yl)-methanone]",Ki,[1],3.2 nM
same,Ki,[4],28 nM
"N#Cc1cccc(Oc2cncc(C(=O)N3CCCN(C4CCC4)CC3)c2)c1 [Example 3, 3-[5-(4-Cyclobutyl-[1,4]diazepane-1-carbonyl)-pyridin-3-yloxy]-benzonitrile]",Ki,[1],1.9 nM
same,Kb,[2],0.955 nM
same,Kb,[3],6.17 nM
"O=C(c1cncc(Oc2ccccc2)c1)N1CCCN(C2CCC2)CC1 [Example 4, (4-Cyclobutyl-[1,4]diazepan-1-yl)-(5-phenoxy-pyridin-3-yl)-methanone]",Ki,[1],3.4 nM
"COc1cccc(Oc2cncc(C(=O)N3CCCN(C4CCC4)CC3)c2)c1 [Example 5, (4-Cyclobutyl-[1,4]diazepan-1-yl)-[5-(3-methoxy-phenoxy)-pyridin-3-yl]-methanone]",Ki,[1],3.4 nM
"O=C(c1cncc(Oc2cccc(F)c2)c1)N1CCCN(C2CCC2)CC1 [Example 6, (4-Cyclobutyl-[1,4]diazepan-1-yl)-[5-(3-fluoro-phenoxy)-pyridin-3-yl]-methanone]",Ki,[1],1 nM
same,Ki,[4],50 nM
same,Kb,[2],2.4 nM
same,Kb,[3],20.4 nM
"CC(C)Oc1cncc(C(=O)N2CCCN(C3CCC3)CC2)c1 [Example 7, (4-Cyclobutyl-[1,4]diazepan-1-yl)-(5-isopropoxy-pyridin-3-yl)-methanone]",Ki,[1],11 nM
"O=C(c1cncc(Sc2ccc(F)cc2)c1)N1CCCN(C2CCC2)CC1 [Example 8, (4-Cyclobutyl-[1,4]diazepan-1-yl)-[5-(4-fluoro-phenylsulfanyl)-pyridin-3-yl]-methanone]",Ki,[1],2.9 nM
same,Kb,[2],3.98 nM
same,Kb,[3],43.7 nM
"CC(C)Sc1cncc(C(=O)N2CCCN(C3CCC3)CC2)c1 [Example 9, (4-Cyclobutyl-[1,4]diazepan-1-yl)-(5-isopropylsulfanyl-pyridin-3-yl)-methanone]",Ki,[1],3 nM
"O=C(c1cncc(Sc2ccccn2)c1)N1CCCN(C2CCC2)CC1 [Example 10, (4-Cyclobutyl-[1,4]diazepan-1-yl)-[5-(pyridin-2-ylsulfanyl)-pyridin-3-yl]-methanone]",Ki,[1],6.6 nM
"O=C(c1cncc(Sc2ncccn2)c1)N1CCCN(C2CCC2)CC1 [Example 11, (4-Cyclobutyl-[1,4]diazepan-1-yl)-[5-(pyrimidin-2-ylsulfanyl)-pyridin-3-yl]-methanone]",Ki,[1],18 nM
"O=C(c1cncc(Sc2ccncc2)c1)N1CCCN(C2CCC2)CC1 [Example 12, (4-Cyclobutyl-[1,4]diazepan-1-yl)-[5-(pyridin-4-ylsulfanyl)-pyridin-3-yl]-methanone]",Ki,[1],1.8 nM
"O=C(c1cc(Oc2ccccc2)ccn1)N1CCCN(C2CCC2)CC1 [Example 13, (4-Cyclobutyl-[1,4]diazepan-1-yl)-(4-phenoxy-pyridin-2-yl)-methanone]",Ki,[1],11 nM
"O=C(c1cc(Oc2ccc(F)cc2)ccn1)N1CCCN(C2CCC2)CC1 [Example 14, (4-Cyclobutyl-[1,4]diazepan-1-yl)-[4-(4-fluoro-phenoxy)-pyridin-2-yl]-methanone]",Ki,[1],17 nM
"O=C(c1cc(Sc2ccc(F)cc2)ccn1)N1CCCN(C2CCC2)CC1 [Example 15, (4-Cyclobutyl-[1,4]diazepan-1-yl)-[4-(4-fluoro-phenylsulfanyl)-pyridin-2-yl]-methanone]",Ki,[1],12 nM
